Patent publication US20240018158A1, “BRM TARGETING COMPOUNDS AND ASSOCIATED METHODS OF USE” (Prelude Therapeutics Incorporated, priority 2020, published 2024)

Tests used:
[1] = target: bromodomain of SMARCA2 protein (Homo sapiens (Human), UniProt P40337+P51531); assay: SMARCA2 bromodomain ternary binding TR-FRET assay (with VCB); conditions: with saturating VCB (5 μM); read-out: IC50 (SM 2_T) ternary binding potency in SMARCA2 FRET assay
Description: Recombinant bromodomain of SMARCA2 protein was purchased from Active Motif (Catalog #: 31449). VHL/ElonginB/ElonginC (VCB)N-terminal his6-tagged VHL (“his6” disclosed as SEQ ID NO: 4) (uniprot accession number P40337; M54-D213; […] […] […] (SEQ ID NO: 1)), Elongin B (Q15370; M1-K104; […] […] (SEQ ID NO: 2)), Elongin C (Q15369; M17-C112; […] […] (SEQ ID NO: 3)) complex were co-expressed and the complex was purified by Ni-affinity, TEV protease was then used to remove his6-tagged (SEQ ID NO: 4), and the complex was further purified by size-exclusion chromatography before use.
The inhibitory activity of compounds was evaluated in vitro using TR-FRET assay with white 384-well low volume microplate (PerkinElmer ProxiPlate Plus), in which the compound competes the same binding site with the ligand, and thus lead to dose-dependent TR-FRET signal reduction. The cooperativity of the compounds for ternary complex formation with E3 ligase was evaluated in the absence or presence of saturating concentrations of VCB. Testing compounds were dissolved in DMSO at […] and tested in 9-dose IC50. The assay mixture was prepared by mixing SMARCA2 (10 nM final), biotinylated probe (25 nM final), and assay buffer or VCB (5 μM) in 1×AlphaLISA Epigenetics Buffer (PerkinElmer AL008F) with 1 mM TCEP. The compounds in DMSO were added to each well in 3-fold serial dilution by dispenser (TECAN D300E) and incubate for 20 minutes at room temperature before addition of detection reagents, Lance Eu W1024 anti-6×His (0.6 nM final, PerkinElmer AD0110) and Streptavidin Surelight APC (6 nM final, PerkinElmer CR130-100). The plate was then sealed and further incubated at 4° C. overnight in dark, and then was read by Envision multimode plate reader (PerkinElmer, 2102-0010). The ratio of florescence signal at 665/620 was used in data analysis. Percentage inhibition was calculated by % inhibition=100×(FDMSO-F)/(FDMSO-FPC), in which FDMSO is DMSO control, and FPC is positive control. IC50 values were determined from dose response curve by fitting the percent inhibition against compound concentration using GraphPad Prism software.

SMARCA4 = SMARCA4 (Homo sapiens (Human), UniProt P51532); assay: In Cell Western SMARCA4 degradation in NCIH520 cells; assay type: cell-based; conditions: for DC50: read-out: DC50 (SM4_H520) SMARCA4 degradation potency
SMARCA4, sequence (P51532 whole entry): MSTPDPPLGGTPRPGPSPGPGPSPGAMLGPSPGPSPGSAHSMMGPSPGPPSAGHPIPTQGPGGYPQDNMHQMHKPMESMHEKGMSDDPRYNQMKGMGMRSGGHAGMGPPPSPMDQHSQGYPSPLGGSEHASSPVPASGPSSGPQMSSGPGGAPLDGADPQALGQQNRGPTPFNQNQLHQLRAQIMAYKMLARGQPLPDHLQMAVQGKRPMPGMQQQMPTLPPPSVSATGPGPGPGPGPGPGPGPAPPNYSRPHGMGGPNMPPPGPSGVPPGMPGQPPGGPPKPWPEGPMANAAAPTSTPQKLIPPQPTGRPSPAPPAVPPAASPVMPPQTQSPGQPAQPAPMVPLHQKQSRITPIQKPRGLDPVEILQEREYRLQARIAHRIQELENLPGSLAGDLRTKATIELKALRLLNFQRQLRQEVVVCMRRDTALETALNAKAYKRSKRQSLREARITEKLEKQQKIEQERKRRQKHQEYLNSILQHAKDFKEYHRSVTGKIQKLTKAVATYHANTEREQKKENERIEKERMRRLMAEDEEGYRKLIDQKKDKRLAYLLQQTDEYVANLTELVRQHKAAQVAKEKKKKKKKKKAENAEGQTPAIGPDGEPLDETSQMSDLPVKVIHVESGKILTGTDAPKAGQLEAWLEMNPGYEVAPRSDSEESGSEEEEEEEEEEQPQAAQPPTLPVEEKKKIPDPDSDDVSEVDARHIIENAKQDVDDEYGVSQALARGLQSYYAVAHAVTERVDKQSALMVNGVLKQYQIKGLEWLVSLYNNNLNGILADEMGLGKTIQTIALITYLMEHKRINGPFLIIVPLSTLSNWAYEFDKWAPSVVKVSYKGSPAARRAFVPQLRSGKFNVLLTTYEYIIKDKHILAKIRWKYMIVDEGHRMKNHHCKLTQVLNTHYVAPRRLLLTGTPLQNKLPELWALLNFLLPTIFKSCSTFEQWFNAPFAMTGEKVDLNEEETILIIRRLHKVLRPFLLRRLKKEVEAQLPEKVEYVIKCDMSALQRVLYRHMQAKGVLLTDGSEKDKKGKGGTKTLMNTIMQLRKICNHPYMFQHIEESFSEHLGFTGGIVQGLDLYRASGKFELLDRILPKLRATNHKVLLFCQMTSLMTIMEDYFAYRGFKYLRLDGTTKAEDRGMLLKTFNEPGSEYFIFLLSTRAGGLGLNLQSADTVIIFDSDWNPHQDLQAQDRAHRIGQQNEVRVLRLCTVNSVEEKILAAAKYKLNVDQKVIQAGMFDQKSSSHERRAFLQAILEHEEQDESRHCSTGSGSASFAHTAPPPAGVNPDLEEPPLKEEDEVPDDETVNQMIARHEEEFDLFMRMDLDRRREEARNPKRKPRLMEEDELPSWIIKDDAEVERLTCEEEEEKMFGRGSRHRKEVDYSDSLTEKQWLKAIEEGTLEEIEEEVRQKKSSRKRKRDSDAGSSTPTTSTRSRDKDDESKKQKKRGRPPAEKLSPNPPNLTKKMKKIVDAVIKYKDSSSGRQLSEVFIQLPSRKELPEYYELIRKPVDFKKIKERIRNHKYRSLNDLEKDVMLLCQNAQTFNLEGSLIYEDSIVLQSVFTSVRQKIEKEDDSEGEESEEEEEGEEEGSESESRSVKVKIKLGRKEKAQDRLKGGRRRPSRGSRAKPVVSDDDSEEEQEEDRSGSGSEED
Experimental: (§1) Compound titration and cell culture: Compounds were dissolved in DMSO to make 10 mM stock and 3-fold series dilutions were further conducted keeping the highest concentration 10 μM. NCIH1693 and NCIH520 cells were maintained in PRMI 1640 medium (Corning Cellgro, Catalog #:10-040-CV) supplemented with 10% v/v FBS (GE Healthcare, Catalog #: SH30910.03) by splitting 1:3 twice a week.
(§2) To determine SMACRA2 and SMARCA4 protein degradation DC50 values in NCIH1693 and NCIH520 cells by In Cell Western (ICW) analysis. Cells were trypsinized and 30 thousand cells/well were seeded into 384-well plates and were allowed to grow for 5 hours at 37° C. Eight-point, 3-fold serial dilutions of compounds from 10 mM stocks were added to the cells (using digital Dispenser D300-Tecan, keeping highest concentration 10 μM and normalizing with DMSO at the highest dispensed volume). Plates were incubated at 37° C. for overnight (maximum 18 hours). Cells incubated with DMSO was used as a vehicle control.
(§3) To perform In Cell Western, medium was removed from all the wells leaving cells attached to the surface. After removing the medium, cells were fixed within the plates with 40 μL of 4% formaldehyde by incubating at room temperature for 30 minutes, and then permeabilized with wash buffer (1×PBS with 0.1% Triton X-100) by washing the plate 5 times with 50 μL/well. Before labeling with primary antibodies, cells were blocked with 30 μL/well of blocking buffer (Licor Odyssey blocking buffer PBS #927-40000) for 30 minutes at room temperature. To measure SMARCA2 or SMARCA4 proteins, cells were labeled with 20 μL/well of anti SMARCA2 or SMACRA4 antibodies (Cell Signaling BRM #11966S 1:1000, Cell Signaling BRG #49360S 1:1000) diluted in Li-Cor Odyssey blocking buffer-PBS #927-40000, followed by overnight incubation at 4° C.
(§4) The next day, plates were washed 5×5 minutes with 50 μL/well of washing buffer to remove all the excess primary antibody and then 20 μL from a mixture of secondary antibody and fluorescent DNA specific dye (Goat anti rabbit 1:500 IRDye-800CW #92632211, and DRAQ5™ 1:2000-#ab108410) was added to each well. Plates were incubated for 1 hour at room temperature with gentle rocking. Cells were washed 5 times with 50 μL/well wash buffer, followed by one last wash with DI water, followed by 10 mins drying at 37° C. oven before scanning. Plates were scanned using Li-Cor Odyssey CLx imaging system to acquire integrated intensities at 700 nm and 800 nm. SMARCA signals were normalized to total cell count and then these normalized values were used to calculate the percent degradation relative to DMSO control and maximum inhibition. DC50s were calculated by using the GraphPad Prism4 program based on sigmoidal dose response equation ([Inhibitor] vs. normalized response−Variable slope).

SMARCA2 = SMARCA2 (Homo sapiens (Human), UniProt P51531); assay: In Cell Western SMARCA2 degradation in NCIH1693 cells; assay type: cell-based; conditions: for DC50: read-out: DC50 (SM2_H1693) SMARCA2 degradation potency; for Dmax: NCI-H1693, overnight, read-out: Dmax % (SM2_H1693) maximum SMARCA2 degradation within the concentrations tested
SMARCA2, sequence (P51531 whole entry): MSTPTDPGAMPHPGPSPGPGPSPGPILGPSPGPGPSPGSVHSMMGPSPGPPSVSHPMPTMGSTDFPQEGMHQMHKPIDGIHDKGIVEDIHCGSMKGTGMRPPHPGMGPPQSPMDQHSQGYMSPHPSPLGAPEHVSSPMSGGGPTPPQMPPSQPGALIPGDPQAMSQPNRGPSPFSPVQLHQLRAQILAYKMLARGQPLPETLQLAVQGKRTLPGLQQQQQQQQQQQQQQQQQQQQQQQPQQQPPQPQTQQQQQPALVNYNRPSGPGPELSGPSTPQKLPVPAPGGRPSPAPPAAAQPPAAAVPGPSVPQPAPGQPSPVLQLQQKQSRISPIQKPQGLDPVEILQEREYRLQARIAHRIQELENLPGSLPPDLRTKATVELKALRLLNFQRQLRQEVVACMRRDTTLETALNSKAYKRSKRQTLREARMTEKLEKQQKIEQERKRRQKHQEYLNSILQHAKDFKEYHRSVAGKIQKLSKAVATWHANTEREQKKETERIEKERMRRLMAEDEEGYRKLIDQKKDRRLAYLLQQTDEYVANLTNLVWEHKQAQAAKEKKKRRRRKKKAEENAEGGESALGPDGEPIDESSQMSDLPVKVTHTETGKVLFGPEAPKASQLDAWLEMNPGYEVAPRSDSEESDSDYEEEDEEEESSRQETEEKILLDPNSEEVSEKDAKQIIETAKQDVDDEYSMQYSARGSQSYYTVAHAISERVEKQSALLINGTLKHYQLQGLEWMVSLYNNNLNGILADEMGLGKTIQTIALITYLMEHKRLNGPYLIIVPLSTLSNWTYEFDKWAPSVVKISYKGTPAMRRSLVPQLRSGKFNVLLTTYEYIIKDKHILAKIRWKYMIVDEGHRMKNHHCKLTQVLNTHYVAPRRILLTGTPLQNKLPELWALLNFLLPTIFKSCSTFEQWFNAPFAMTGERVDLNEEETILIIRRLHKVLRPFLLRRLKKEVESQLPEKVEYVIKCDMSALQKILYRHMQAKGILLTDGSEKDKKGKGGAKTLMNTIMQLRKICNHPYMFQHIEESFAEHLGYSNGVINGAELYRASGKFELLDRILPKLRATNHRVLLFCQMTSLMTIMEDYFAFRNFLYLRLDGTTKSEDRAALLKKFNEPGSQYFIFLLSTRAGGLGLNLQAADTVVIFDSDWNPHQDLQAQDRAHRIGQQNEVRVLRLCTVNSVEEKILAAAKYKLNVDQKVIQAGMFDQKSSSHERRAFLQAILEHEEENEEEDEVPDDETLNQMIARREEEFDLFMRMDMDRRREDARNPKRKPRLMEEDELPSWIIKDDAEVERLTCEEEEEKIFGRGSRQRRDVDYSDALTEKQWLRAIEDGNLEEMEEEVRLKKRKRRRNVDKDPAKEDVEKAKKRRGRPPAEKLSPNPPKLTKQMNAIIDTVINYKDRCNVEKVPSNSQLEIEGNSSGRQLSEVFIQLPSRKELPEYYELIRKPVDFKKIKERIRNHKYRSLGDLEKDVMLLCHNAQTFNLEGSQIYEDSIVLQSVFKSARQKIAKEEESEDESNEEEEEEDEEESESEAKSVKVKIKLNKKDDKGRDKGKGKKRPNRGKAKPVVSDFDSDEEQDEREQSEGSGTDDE
Experimental: as §1, §2, §3, §4

NCIH1693 cells = assay: Cell proliferation assay (ATPlite) in NCIH1693 cells; assay type: cell-based; conditions: H1693 cells, day 4; read-out: IC50 (PRO_H1693) antiproliferation potency
Experimental: One thousand NCIH1693 or NCIH1703 cells per well were seeded in 96 well plate and incubated at 37° C. for 5 hrs. A series of three-fold dilution of compounds from 10 mM stock concentration were added to the cells by using digital Dispenser D300-Tecan, keeping highest concentration 10 μM and normalizing with DMSO at the highest dispensed volume). Cells incubated with DMSO was used as a vehicle control. After compound treatment plates were incubated at 37° C. for 4 days and cell viability was measured by measuring ATP content from the cell lysate using ATPlite Luminescence assay system (PerkinElmer Cat. no #6016941). Percentage of viable cells, relative to DMSO vehicle control and maximum inhibition, was calculated and plotted in Graphpad Prism ([Inhibitor] vs. normalized response−Variable slope) to determine cell proliferation IC50 values on day 4.

bromodomain of SMARCA2 protein, sequence (P51531 whole entry, looked up): as the sequence (P51531 whole entry) above
bromodomain of SMARCA2 protein, sequence (P40337 whole entry, looked up): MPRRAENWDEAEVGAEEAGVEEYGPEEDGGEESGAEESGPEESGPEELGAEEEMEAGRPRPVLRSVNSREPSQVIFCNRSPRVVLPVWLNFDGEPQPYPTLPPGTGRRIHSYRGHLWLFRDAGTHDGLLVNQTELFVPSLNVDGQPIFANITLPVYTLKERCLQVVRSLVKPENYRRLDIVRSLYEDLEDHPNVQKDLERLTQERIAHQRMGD
bromodomain of SMARCA2 protein, sequence (Q15370 whole entry partner, looked up): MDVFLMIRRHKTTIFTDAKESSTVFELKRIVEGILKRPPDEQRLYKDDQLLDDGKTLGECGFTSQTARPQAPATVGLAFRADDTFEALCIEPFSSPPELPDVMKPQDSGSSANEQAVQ
bromodomain of SMARCA2 protein, sequence (Q15369 whole entry partner, looked up): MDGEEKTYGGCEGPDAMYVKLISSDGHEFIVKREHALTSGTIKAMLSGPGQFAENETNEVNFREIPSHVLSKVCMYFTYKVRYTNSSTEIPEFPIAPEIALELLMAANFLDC

| IC50 [1] [nM] | DC50 (SMARCA4; H520 cells, overnight) [nM] | DC50 (SMARCA2; H1693 cells, overnight) [nM] | Dmax (SMARCA2) [%] | Dmax (SMARCA4; NCI-H520, overnight, read-out: Dmax % (SM4_H520) maximum SMARCA4 degradation within the concentrations tested) [%] | Dmax % (SM4_H520) maximum SMARCA4 degradation within the concentrations tested (SMARCA4; H520 cells, overnight) | Dmax % (SM2_H1693) maximum SMARCA2 degradation within the concentrations tested (SMARCA2; H1693 cells, overnight) | SMILES | IC50 (NCIH1693 cells) [nM] |
| --- | --- | --- | --- | --- | --- | --- | --- | --- |
| < 100 | 100 to 1000 | < 100 | > 75 | – | – | – | Cc1ncsc1-c1ccc([C@H](C)NC(=O)[C@@H]2C[C@@H](O)CN2C(=O)[C@@H](NC(=O)CN2CCN3c4cc(-c5ccccc5O)nnc4NCC3C2)C(C)(C)C)cc1 (single isomer, unassigned) [Example 1b] | 100 to 1000 |
| 100 to 1000 | 1000 to 10000 | 100 to 1000 | > 75 | 50 to 75 | – | – | Cc1scnc1-c1ccc(CNC(=O)[C@@H]2C[C@@H](O)CN2C(=O)[C@@H](NC(=O)CN2CCN3c4cc(-c5ccccc5O)nnc4NCC3C2)C(C)(C)C)cc1 (single isomer, unassigned) [Example 2a] | 100 to 1000 |
| < 100 | ≥ 10000 | 1000 to 10000 | – | – | C (C = Dmax <= 50%) | A (A = Dmax > 75%) | Cc1scnc1-c1ccc(CNC(=O)[C@@H]2C[C@@H](O)CN2C(=O)[C@@H](NC(=O)CN2CCN3c4cc(-c5ccccc5O)nnc4NCC3C2)C(C)(C)C)cc1 (single isomer, unassigned) [Example 2b] | 1000 to 10000 |
